Results from patent US20220403001A1, “PDE5 DERIVED REGULATORY CONSTRUCTS AND METHODS OF USE IN IMMUNOTHERAPY” (Obsidian Therapeutics, Inc., priority 2018, published 2022).
Where two headings read alike, the source gives them in different places. Each block holds one molecule with its values, some of them ahead of it.

Columns and labels:
hPDE5 Y612A = hPDE5 Y612A (Homo sapiens, UniProt O76074, Y612A); conditions: Y612A ablates hydrogen bonding and hydrophobic bonding potential; Corbin et al. 2006; cited from earlier work
[1] = approved dose, cited from earlier work
hPDE5 Y612F = hPDE5 Y612F (Homo sapiens, UniProt O76074, Y612F); conditions: Y612F ablates hydrogen bonding potential; Corbin et al. 2006; cited from earlier work
hPDE5 mutants [2] = assay: GFP expression (MFI) by FACS in HEK293 cells expressing hPDE5 constructs; conditions: read-out: EC50 of ligand dependent stabilization; HEK293 cells expressing OT-001076, OT-001083, OT-001084; 48 h
hPDE5 mutants [3] = molecular target: T1, hPDE5 mutants (Homo sapiens, UniProt O76074); assay: GFP MFI by FACS in HCT116 cells transduced with hPDE5 constructs; format: cell-based; conditions: for Vardenafil Stabilization ratio / Sildenafil Stabilization ratio / GFP by FACS, Sildenafil 10 μM / GFP by FACS, Vardenafil 1 μM: hotspot constructs; for Vardenafil Stabilization ratio: 1 μM Vardenafil; for Sildenafil Stabilization ratio: 10 μM Sildenafil; for GFP by FACS, Sildenafil 10 μM / GFP by FACS, Vardenafil 1 μM: HCT116
hPDE5 mutants [4] = assay: as above; format: cell-based, human; conditions: for MFI: 48 hours, HCT 116 cells; for Sildenafil Destabilizing mutation coefficient / Vardenafil Destabilizing mutation coefficient / GFP by FACS, Sildenafil 0 μM (DMSO) / GFP by FACS, Vardenafil 0 μM (DMSO): hotspot constructs; for Sildenafil Destabilizing mutation coefficient: DMSO control of Sildenafil; for Sildenafil Destabilizing mutation coefficient / Vardenafil Destabilizing mutation coefficient: vs OT-001075; for Vardenafil Destabilizing mutation coefficient: DMSO control of Vardenafil; for GFP by FACS, Sildenafil 0 μM (DMSO): HCT116, DMSO control of Sildenafil; for GFP by FACS, Vardenafil 0 μM (DMSO): HCT116, DMSO control of Vardenafil
hPDE5 mutants [5] = molecular target: T1, hPDE5 mutants; assay: Western blot of AcGFP/GFP protein levels in HCT 116 cells expressing hPDE5 mutants; format: cell-based; parameters: GFP protein levels (western blot); fused on or other part: AcGFP reporter through a linker; conditions: vardenafil vs DMSO, HCT 116, R732 mutants
Procedure: Protein expression analysis of the combination mutants was performed in parallel via western blot. […] GAPDH levels were also analyzed to ensure even protein loading.

[6] = Plasma PK of Tadalafil and Vardenafil after a single oral dose (LC/MS/MS); format: in vivo, mice; conditions: mouse, read-out: Plasma levels; for concentration at 1 h: 1 hour post dose; for concentration at 2 h: 2 hours post dose; for concentration at 4 h: 4 hours post dose; for concentration at 8 h: 8 hours post dose; for concentration at 12 h: 12 hours post dose; for concentration at 16 h: 16 hours post dose; for concentration at 24 h: 24 hours post dose
Procedure: Plasma samples collected over time and PDE5 inhibitor concentrations were determined by LC/MS/MS (Table 60). The Vardenafil/Tadalafil levels detected in the plasma declined over time and were commensurate with the initial dose orally administered to the animal.

[7] = Table 44, Vardenafil 0.01 μM, 48 h, HCT 116
[8] = Table 44, Vardenafil 0.04 μM, 48 h, HCT 116
[9] = Table 44, Vardenafil 3.33 μM, 48 h, HCT 116
[10] = Table 44, Vardenafil 10 μM, 48 h, HCT 116
[11] = Table 44, Vardenafil 30 μM, 48 h, HCT 116
[12] = Table 44, Vardenafil 1000 μM, 48 h, HCT 116
[13] = Table 45, Sildenafil 0.01 μM, 48 h, HCT 116
[14] = Table 45, Sildenafil 0.04 μM, 48 h, HCT 116
[15] = Table 45, Sildenafil 3.33 μM, 48 h, HCT 116
[16] = Table 45, Sildenafil 10 μM, 48 h, HCT 116
[17] = Table 45, Sildenafil 30 μM, 48 h, HCT 116
[18] = Table 45, Sildenafil 1000 μM, 48 h, HCT 116
[19] = Tadalafil 0.01 μM, 48 hours, HCT 116 cells
[20] = CD-1 mice, single oral dose 10 mg/kg
[21] = CD-1 mice, single oral dose 100 mg/kg
[22] = NSG mice, single oral dose 10 mg/kg
[23] = NSG mice, single oral dose 30 mg/kg
[24] = NSG mice, single oral dose 100 mg/kg

Molecule: CCCc1nn(C)c2c(=O)[nH]c(-c3cc(S(=O)(=O)N4CCN(C)CC4)ccc3OCC)nc12 [Sildenafil]
effect of Y612A mutation on inhibition of hPDE5 catalytic activity by ligand (hPDE5 Y612A): to a lesser extent
effect of Y612F mutation on inhibition of hPDE5 activity by ligand (hPDE5 Y612F): increases the inhibition of hPDE5 activity

MFI (hPDE5 mutants [3]; [7]): 2551
MFI (hPDE5 mutants [3]; [8]): 8345
MFI (hPDE5 mutants [3]; [9]): 16783
MFI (hPDE5 mutants [3]; [10]): 18945
MFI (hPDE5 mutants [3]; [11]): 22548
MFI (hPDE5 mutants [3]; [12]): 22548
MFI (hPDE5 mutants [3]; [13]): 808
MFI (hPDE5 mutants [3]; [14]): 1025
MFI (hPDE5 mutants [3]; [15]): 3769
MFI (hPDE5 mutants [3]; [16]): 4716
MFI (hPDE5 mutants [3]; [17]): 5694
MFI (hPDE5 mutants [3]; [18]): 5694
MFI (hPDE5 mutants [3]; [19]): 752
Vardenafil Stabilization ratio (hPDE5 mutants [3]): 4.87
Sildenafil Stabilization ratio (hPDE5 mutants [3]): 1.21
GFP by FACS, Sildenafil 10 μM (hPDE5 mutants [3]): 348
GFP by FACS, Vardenafil 1 μM (hPDE5 mutants [3]): 853
GFP protein levels (western blot) (hPDE5 mutants [5]): strong stabilization of GFP levels
Molecule: OT-001187: hPDE5 R732A AcGFP construct
MFI (hPDE5 mutants [4]; Tadalafil 11.11 μM): 5126
MFI (hPDE5 mutants [4]; Tadalafil 33.33 μM): 6264
MFI (hPDE5 mutants [4]; Tadalafil 100 μM): 6301
MFI (hPDE5 mutants [4]; Tadalafil 1000 μM): 6301
Sildenafil Destabilizing mutation coefficient (hPDE5 mutants [4]): 0.29
Vardenafil Destabilizing mutation coefficient (hPDE5 mutants [4]): 1.09
GFP by FACS, Sildenafil 0 μM (DMSO) (hPDE5 mutants [4]): 288
GFP by FACS, Vardenafil 0 μM (DMSO) (hPDE5 mutants [4]): 175

MFI (hPDE5 mutants [3]; [7]): 2188
MFI (hPDE5 mutants [3]; [8]): 8468
MFI (hPDE5 mutants [3]; [9]): 14705
MFI (hPDE5 mutants [3]; [10]): 17021
MFI (hPDE5 mutants [3]; [11]): 20693
MFI (hPDE5 mutants [3]; [12]): 20693
MFI (hPDE5 mutants [3]; [13]): 688
MFI (hPDE5 mutants [3]; [14]): 916
MFI (hPDE5 mutants [3]; [15]): 3555
MFI (hPDE5 mutants [3]; [16]): 4427
MFI (hPDE5 mutants [3]; [17]): 5449
MFI (hPDE5 mutants [3]; [18]): 5449
MFI (hPDE5 mutants [3]; [19]): 631
Vardenafil Stabilization ratio (hPDE5 mutants [3]): 4.99
Sildenafil Stabilization ratio (hPDE5 mutants [3]): 1.51
GFP by FACS, Sildenafil 10 μM (hPDE5 mutants [3]): 351
GFP by FACS, Vardenafil 1 μM (hPDE5 mutants [3]): 943
Molecule: OT-001191: hPDE5 R732F AcGFP construct
MFI (hPDE5 mutants [4]; Tadalafil 11.11 μM): 4734
MFI (hPDE5 mutants [4]; Tadalafil 33.33 μM): 5293
MFI (hPDE5 mutants [4]; Tadalafil 100 μM): 5867
MFI (hPDE5 mutants [4]; Tadalafil 1000 μM): 5867
Sildenafil Destabilizing mutation coefficient (hPDE5 mutants [4]): 0.24
Vardenafil Destabilizing mutation coefficient (hPDE5 mutants [4]): 1.17
GFP by FACS, Sildenafil 0 μM (DMSO) (hPDE5 mutants [4]): 233
GFP by FACS, Vardenafil 0 μM (DMSO) (hPDE5 mutants [4]): 189
GFP protein levels (western blot) (hPDE5 mutants [5]): Modest ligand dependent stabilization of GFP levels

Vardenafil Stabilization ratio (hPDE5 mutants [3]): 1.14
Sildenafil Stabilization ratio (hPDE5 mutants [3]): 1.63
GFP by FACS, Sildenafil 10 μM (hPDE5 mutants [3]): 648
GFP by FACS, Vardenafil 1 μM (hPDE5 mutants [3]): 345
GFP protein levels (western blot) (hPDE5 mutants [5]): strong stabilization of GFP levels
Molecule: OT-001193: hPDE5 R732Y AcGFP construct
Sildenafil Destabilizing mutation coefficient (hPDE5 mutants [4]): 0.4
Vardenafil Destabilizing mutation coefficient (hPDE5 mutants [4]): 1.88
GFP by FACS, Sildenafil 0 μM (DMSO) (hPDE5 mutants [4]): 397
GFP by FACS, Vardenafil 0 μM (DMSO) (hPDE5 mutants [4]): 302

Molecule: CCCc1nc(C)c2c(=O)[nH]c(-c3cc(S(=O)(=O)N4CCN(CC)CC4)ccc3OCC)nn12 [Vardenafil]
concentration at 1 h [6, 20]: 160 nM
concentration at 2 h [6, 20]: 30 nM
concentration at 4 h [6, 20]: 20 nM
concentration at 1 h [6, 21]: 7810 nM
concentration at 2 h [6, 21]: 3040 nM
concentration at 4 h [6, 21]: 3320 nM
concentration at 8 h [6, 21]: 1180 nM
concentration at 12 h [6, 21]: 40 nM
Cmax ([1]; PO): 100 nM
EC50 (hPDE5 mutants [2]): 100 to 300 nM

Vardenafil Stabilization ratio (hPDE5 mutants [3]): 0.87
Sildenafil Stabilization ratio (hPDE5 mutants [3]): 0.95
GFP by FACS, Sildenafil 10 μM (hPDE5 mutants [3]): 361
GFP by FACS, Vardenafil 1 μM (hPDE5 mutants [3]): 310
GFP protein levels (western blot) (hPDE5 mutants [5]): strong stabilization of GFP levels
Molecule: OT-001190: hPDE5 R732P AcGFP construct
Sildenafil Destabilizing mutation coefficient (hPDE5 mutants [4]): 0.38
Vardenafil Destabilizing mutation coefficient (hPDE5 mutants [4]): 2.2
GFP by FACS, Sildenafil 0 μM (DMSO) (hPDE5 mutants [4]): 379
GFP by FACS, Vardenafil 0 μM (DMSO) (hPDE5 mutants [4]): 355

concentration at 1 h [6, 22]: 6800 nM
concentration at 2 h [6, 22]: 5400 nM
concentration at 4 h [6, 22]: 3900 nM
concentration at 8 h [6, 22]: 900 nM
concentration at 12 h [6, 22]: 100 nM
concentration at 16 h [6, 22]: 0 nM
concentration at 1 h [6, 23]: 19800 nM
concentration at 2 h [6, 23]: 17600 nM
concentration at 4 h [6, 23]: 12100 nM
concentration at 8 h [6, 23]: 4400 nM
concentration at 12 h [6, 23]: 500 nM
concentration at 16 h [6, 23]: 100 nM
concentration at 24 h [6, 23]: 0 nM
concentration at 1 h [6, 24]: 53300 nM
concentration at 2 h [6, 24]: 44700 nM
concentration at 4 h [6, 24]: 34800 nM
concentration at 8 h [6, 24]: 13700 nM
concentration at 12 h [6, 24]: 5600 nM
concentration at 16 h [6, 24]: 1500 nM
concentration at 24 h [6, 24]: 100 nM
Molecule: CN1CC(=O)N2[C@H](c3ccc4c(c3)OCO4)c3[nH]c4ccccc4c3C[C@@H]2C1=O [Tadalafil]
Cmax ([1]; PO): 1500 nM
Duration of action [1]: 24 to 36 h

Vardenafil Stabilization ratio (hPDE5 mutants [3]): 0.7
Sildenafil Stabilization ratio (hPDE5 mutants [3]): 0.98
GFP by FACS, Sildenafil 10 μM (hPDE5 mutants [3]): 746
GFP by FACS, Vardenafil 1 μM (hPDE5 mutants [3]): 399
GFP protein levels (western blot) (hPDE5 mutants [5]): strong stabilization of GFP levels
Molecule: OT-001196: hPDE5 R732S AcGFP construct
Sildenafil Destabilizing mutation coefficient (hPDE5 mutants [4]): 0.77
Vardenafil Destabilizing mutation coefficient (hPDE5 mutants [4]): 3.52
GFP by FACS, Sildenafil 0 μM (DMSO) (hPDE5 mutants [4]): 760
GFP by FACS, Vardenafil 0 μM (DMSO) (hPDE5 mutants [4]): 566

Vardenafil Stabilization ratio (hPDE5 mutants [3]): 1.07
Sildenafil Stabilization ratio (hPDE5 mutants [3]): 1.76
GFP by FACS, Sildenafil 10 μM (hPDE5 mutants [3]): 503
GFP by FACS, Vardenafil 1 μM (hPDE5 mutants [3]): 337
GFP protein levels (western blot) (hPDE5 mutants [5]): strong stabilization of GFP levels
Molecule: OT-001202: hPDE5 R732M AcGFP construct
Sildenafil Destabilizing mutation coefficient (hPDE5 mutants [4]): 0.29
Vardenafil Destabilizing mutation coefficient (hPDE5 mutants [4]): 1.96
GFP by FACS, Sildenafil 0 μM (DMSO) (hPDE5 mutants [4]): 285
GFP by FACS, Vardenafil 0 μM (DMSO) (hPDE5 mutants [4]): 316
